Measured values from ChEMBL document CHEMBL1140025, “Antimicrobial activity of rationally designed amino terminal modified peptides” (Bioorg Med Chem Lett, 2007).
≈ marks a conversion by molar mass, not a printed value. Where a SMILES comes first, the peptide text is derived from it. [ ]: non-standard residue; d: D form. The star is where a group is joined. Desaminotyrosyl = O=C(CCc1ccc(O)cc1)*; X1 = O=C(/C=C/c1ccc(O)cc1)*; Orn = NCCC[C@H](N)C(=O)O; X2 = O=C(/C=C/c1ccccc1)*

What was measured:
Pseudomonas aeruginosa = test: Antibacterial activity against Pseudomonas aeruginosa MTCCB 741; assay type: functional
Escherichia coli [1] = test: Antibacterial activity against Escherichia coli MTCCB 1610; assay type: functional
Staphylococcus aureus = test: Antibacterial activity against Staphylococcus aureus MTCCB 96; assay type: functional
Bacillus subtilis = test: Antibacterial activity against Bacillus subtilis NCIM 2063; assay type: functional
Escherichia coli [2] = test: Antibacterial activity against Escherichia coli
[3] = Toxicity against human red blood cells assessed as lysis upto 1000 ug/mL; assay type: cell-based, Erythrocyte; settings: read-out: Activity

Compound	MIC (Pseudomonas aeruginosa)	MIC (Escherichia coli [1])	MIC (Staphylococcus aureus)	MIC (Bacillus subtilis)	MIC (Escherichia coli [2])	hemolysis [3]
CN(C)[C@@H]1C(O)=C(C(N)=O)C(=O)[C@@]2(O)C(O)=C3C(=O)c4c(O)cccc4[C@@](C)(O)[C@H]3C[C@@H]12 [TETRACYCLINE]	1 µg/mL (≈ 2.25 µM)	0.5 µg/mL (≈ 1.13 µM)	0.25 µg/mL (≈ 0.563 µM)	0.125 µg/mL (≈ 0.281 µM)	2 µg/mL (≈ 4.5 µM)	–
NCCC[C@H](NC(=O)/C=C/c1ccc(O)cc1)C(=O)N[C@@H](CCCN)C(=O)N[C@@H](Cc1ccccc1)C(=O)N[C@@H](Cc1ccccc1)C(N)=O (X1-[Orn][Orn]FF-NH2)	2 µg/mL (≈ 2.92 µM)	4 µg/mL (≈ 5.83 µM)	32 µg/mL (≈ 46.7 µM)	2 µg/mL (≈ 2.92 µM)	8 µg/mL (≈ 11.7 µM)	0%
NCCC[C@H](NC(=O)/C=C/c1ccccc1)C(=O)N[C@@H](CCCN)C(=O)N[C@@H](Cc1c[nH]c2ccccc12)C(=O)N[C@@H](Cc1c[nH]c2ccccc12)C(N)=O (X2-[Orn][Orn]WW-NH2)	16 µg/mL (≈ 21.4 µM)	2 µg/mL (≈ 2.67 µM)	2 µg/mL (≈ 2.67 µM)	32 µg/mL (≈ 42.8 µM)	4 µg/mL (≈ 5.35 µM)	0%
NCCC[C@H](NC(=O)CCc1ccc(O)cc1)C(=O)N[C@@H](CCCN)C(=O)N[C@@H](Cc1c[nH]c2ccccc12)C(=O)N[C@@H](Cc1c[nH]c2ccccc12)C(N)=O (Desaminotyrosyl-[Orn][Orn]WW-NH2)	32 µg/mL (≈ 41.8 µM)	2 µg/mL (≈ 2.61 µM)	1 µg/mL (≈ 1.31 µM)	2 µg/mL (≈ 2.61 µM)	4 µg/mL (≈ 5.22 µM)	0%
CC(=O)N[C@@H](CCCN)C(=O)N[C@@H](CCCN)C(=O)N[C@@H](Cc1c[nH]c2ccccc12)C(=O)N[C@@H](Cc1c[nH]c2ccccc12)C(N)=O (Ac-[Orn][Orn]WW-NH2)	128 µg/mL (≈ 194 µM)	32 µg/mL (≈ 48.5 µM)	2 µg/mL (≈ 3.03 µM)	2 µg/mL (≈ 3.03 µM)	128 µg/mL (≈ 194 µM)	0%
NCCC[C@H](NC(=O)/C=C/c1ccc(O)cc1)C(=O)N[C@@H](CCCN)C(=O)N[C@@H](Cc1c[nH]c2ccccc12)C(=O)N[C@@H](Cc1c[nH]c2ccccc12)C(N)=O (X1-[Orn][Orn]WW-NH2)	2 µg/mL (≈ 2.62 µM)	16 µg/mL (≈ 20.9 µM)	2 µg/mL (≈ 2.62 µM)	1 µg/mL (≈ 1.31 µM)	8 µg/mL (≈ 10.5 µM)	0%
GENTAMICIN	1 µg/mL	0.25 µg/mL	0.062 µg/mL	0.03 µg/mL	–	–
NCCC[C@H](NC(=O)[C@@H](N)CCCN)C(=O)N[C@@H](Cc1c[nH]c2ccccc12)C(=O)N[C@@H](Cc1c[nH]c2ccccc12)C(N)=O (H-[Orn][Orn]WW-NH2)	256 µg/mL (≈ 414 µM)	512 µg/mL (≈ 829 µM)	128 µg/mL (≈ 207 µM)	512 µg/mL (≈ 829 µM)	256 µg/mL (≈ 414 µM)	0%
NCCC[C@H](NC(=O)/C=C/c1ccc(O)cc1)C(=O)N[C@@H](CCCN)C(=O)N[C@@H](Cc1c[nH]c2ccccc12)C(=O)N[C@@H](Cc1c[nH]c2ccccc12)C(=O)O (X1-[Orn][Orn]WW-OH)	64 µg/mL (≈ 83.7 µM)	64 µg/mL (≈ 83.7 µM)	128 µg/mL (≈ 167 µM)	128 µg/mL (≈ 167 µM)	128 µg/mL (≈ 167 µM)	0%
NC(=O)[C@H](Cc1c[nH]c2ccccc12)NC(=O)[C@H](Cc1c[nH]c2ccccc12)NC(=O)/C=C/c1ccc(O)cc1	< 512 µg/mL	< 512 µg/mL	2 µg/mL (≈ 3.73 µM)	1 µg/mL (≈ 1.87 µM)	< 512 µg/mL	0%
